Assay results taken from the supplement of paper PMC3493320.
pIC50: −log10 of the molar value.

test system: NCI-H295R; assay: IC50 (antiproliferative, ATP content); settings: 48 h
Procedure, shortened: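 Cell viability of adrenocortical carcinoma cells was assessed as ATP by CellTiter-Glo luminescence. Cells at 1500 per well in 1536-well plates, in serum-free DMEM with ITS, received compounds by pin transfer at 8 final concentrations (0.6 nM–46 µM) after overnight culture and were then held 48 h at 37 °C, 5% CO2. IC50 was calculated by logistic fitting against vehicle and positive-control wells, compounds with no concentration response being recorded as above the top dose.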

**Q.** How did the pIC50 turn out when `CN1CCN(c2cc3c(cc2F)c(=O)c(C(=O)O)cn3-c2ccc(F)cc2)CC1.Cl` was run?
**A.** < 4.34

**Q.** How did the pIC50 turn out when `Cc1ccc(S(=O)(=O)[N-]Cl)cc1.O.O.O.[Na+]` was run?
**A.** < 4.34

**Q.** How did the pIC50 turn out when `CCN1CCCC(OC(=O)C(c2ccccc2)c2ccccc2)C1.Cl` (stereo unspecified) was run?
**A.** < 4.34

**Q.** How did the pIC50 turn out when `CS(=O)(=O)O.N=C(N)Nc1ccc(C(=O)Oc2ccc3cc(C(=N)N)ccc3c2)cc1` was run?
**A.** < 4.34

**Q.** `CCCCCCCCCCCCCCCCCCO` was tested. Which pIC50 did it give?
**A.** < 4.34

**Q.** `CCOC(=O)[C@H](CCc1ccccc1)N[C@@H](C)C(=O)N1CCC[C@H]1C(=O)O` was tested. Which pIC50 did it give?
**A.** < 4.34

**Q.** How did the pIC50 turn out when `O=C(O)C1CCCN1` (stereo unspecified) was run?
**A.** < 4.34

**Q.** `CNC[C@H](O)[C@@H](O)[C@@H](O)[C@H](O)CO.Cc1c(Nc2ncccc2C(=O)O)cccc1C(F)(F)F` was tested. Which pIC50 did it give?
**A.** < 4.34

**Q.** `O=[C@](OCC2=C(F)C(F)=CC(F)=C2F)[C@H]1C(C)(C)[C@@H]1/C=C(Cl)/Cl` was tested. Which pIC50 did it give?
**A.** < 4.34

**Q.** With `CCSc1ccc2c(c1)N(CCCN1CCN(C)CC1)c1ccccc1S2.O=C(O)CC(O)C(=O)O.O=C(O)CC(O)C(=O)O` as the compound, how does the pIC50 read?
**A.** < 4.34

**Q.** With `C[C@]12CC[C@@H]3c4ccc(O)cc4CC[C@H]3[C@@H]1CC[C@@H]2OP(=O)(O)O` as the compound, how does the pIC50 read?
**A.** < 4.34

**Q.** `OC[C@H]1O[C@@H](Oc2ccc(O)cc2)[C@H](O)[C@@H](O)[C@@H]1O` was tested. Which pIC50 did it give?
**A.** < 4.34

**Q.** How did the pIC50 turn out when `CC(=O)OCC1=C(C(=O)O)N2C(=O)[C@@H](N)[C@H]2SC1` was run?
**A.** < 4.34

**Q.** How did the pIC50 turn out when `CN1[C@@H]2CC[C@H]1C[C@@H](OC(c1ccccc1)c1ccccc1)C2` was run?
**A.** < 4.34

**Q.** `O=C(N[C@H](CO)[C@H](O)c1ccc([N+](=O)[O-])cc1)C(Cl)Cl` was tested. Which pIC50 did it give?
**A.** < 4.34

**Q.** How did the pIC50 turn out when `CCCCCCNC(=O)n1cc(F)c(=O)[nH]c1=O` was run?
**A.** < 4.34

**Q.** `CCOc1cc(CC(=O)N[C@@H](CC(C)C)c2ccccc2N2CCCCC2)ccc1C(=O)O` was tested. Which pIC50 did it give?
**A.** < 4.34

**Q.** `COc1ccc(-c2cc(C(F)F)nn2-c2ccc(S(N)(=O)=O)cc2)cc1F` was tested. Which pIC50 did it give?
**A.** < 4.34

**Q.** How did the pIC50 turn out when `Cl.Nc1c(Br)cc(Br)cc1CN[C@H]1CC[C@H](O)CC1` was run?
**A.** < 4.34

**Q.** `C[C@@H](O)[C@H]1C(=O)N2C(C(=O)[O-])=C(SC3Cn4cnc[n+]4C3)[C@H](C)[C@H]12` (stereo partly specified) was tested. Which pIC50 did it give?
**A.** < 4.34

**Q.** With `O=C1CCC(c2ccccc2)(C2CCN(Cc3ccccc3)CC2)C(=O)N1` (stereo unspecified) as the compound, how does the pIC50 read?
**A.** < 4.34

**Q.** How did the pIC50 turn out when `CC(CCc1ccccc1)NCC(O)c1ccc(O)c(C(N)=O)c1.Cl` (stereo unspecified) was run?
**A.** < 4.34

**Q.** How did the pIC50 turn out when `CN1CCN(C(c2ccccc2)c2ccc(Cl)cc2)CC1.Cl` (stereo unspecified) was run?
**A.** < 4.34

**Q.** `CCN(CC)CCNC(=O)c1ccc(N)cc1` was tested. Which pIC50 did it give?
**A.** < 4.34

**Q.** How did the pIC50 turn out when `Cl.Nc1ccc(/N=N/c2ccccc2)c(N)n1` was run?
**A.** < 4.34

**Q.** `FC(F)(F)C(F)(F)C(F)(F)C(F)(F)C(F)(F)C(F)(F)F` was tested. Which pIC50 did it give?
**A.** < 4.34

**Q.** `C[N+](C)(C)CC(O)CC(=O)[O-].Cl` (stereo unspecified) was tested. Which pIC50 did it give?
**A.** < 4.34

**Q.** How did the pIC50 turn out when `CC(O)CO` (stereo unspecified) was run?
**A.** < 4.34

**Q.** How did the pIC50 turn out when `O=C(O)Cc1sc(-c2ccccc2)nc1-c1ccc(Cl)cc1` was run?
**A.** < 4.34

**Q.** `N[C@H](CC(=O)O)C(=O)O` was tested. Which pIC50 did it give?
**A.** < 4.34

**Q.** How did the pIC50 turn out when `N=C\2/N=C3/O[C@H]1[C@H](O)[C@@H](CO)O[C@H]1N3/C=C/2` was run?
**A.** < 4.34

**Q.** How did the pIC50 turn out when `CN1[C@@H](CC(=O)c2ccccc2)CCC[C@H]1C[C@H](O)c1ccccc1` was run?
**A.** < 4.34

**Q.** With `CC1(C)[C@@H](OC(=O)CCC(=O)[O-])CC[C@]2(C)[C@H]3C(=O)C=C4[C@@H]5C[C@@](C)(C(=O)[O-])CC[C@]5(C)CC[C@@]4(C)[C@]3(C)CC[C@@H]12.[Na+].[Na+]` as the compound, how does the pIC50 read?
**A.** < 4.34

**Q.** How did the pIC50 turn out when `Nc1ccc(N)cc1` was run?
**A.** < 4.34

**Q.** `C[C@H](Cn1cnc2c(N)ncnc21)OCP(=O)(O)O` was tested. Which pIC50 did it give?
**A.** < 4.34

**Q.** `O=C(CCCN1CCC(O)(c2ccc(Br)cc2)CC1)c1ccc(F)cc1` was tested. Which pIC50 did it give?
**A.** < 4.34

**Q.** With `Cc1cccn2c(=O)c(-c3nnn[n-]3)cnc12.[K+]` as the compound, how does the pIC50 read?
**A.** < 4.34

**Q.** With `COc1ccc(C(Cl)=C(c2ccc(OC)cc2)c2ccc(OC)cc2)cc1` as the compound, how does the pIC50 read?
**A.** < 4.34

**Q.** How did the pIC50 turn out when `O=[C@@](OCC)[C@@H](N[C@@H](C)C(N2C(N(C)C[C@H]2[C@](O)=O)=O)=O)CCC1=CC=CC=C1.Cl` was run?
**A.** < 4.34

**Q.** With `O.O.O.O.[Na+].[O-]c1ccccc1-c1ccccc1` as the compound, how does the pIC50 read?
**A.** < 4.34

**Q.** How did the pIC50 turn out when `CCCc1cc(=O)[nH]c(=S)[nH]1` was run?
**A.** < 4.34

**Q.** How did the pIC50 turn out when `CC(C)(C)NCC(O)CSc1nc(-c2ccc(C(N)=O)s2)cs1.Cl` (stereo unspecified) was run?
**A.** < 4.34

**Q.** How did the pIC50 turn out when `O=C(CCCN1CCC(n2c(=O)[nH]c3ccccc32)CC1)c1ccc(F)cc1` was run?
**A.** < 4.34

**Q.** With `CCOc1ccc(S(=O)(=O)O)c2cccnc12` as the compound, how does the pIC50 read?
**A.** < 4.34

**Q.** With `CCN(CC)CCCC(C)Nc1ccnc2cc(Cl)ccc12.O=P(O)(O)O.O=P(O)(O)O` (stereo unspecified) as the compound, how does the pIC50 read?
**A.** < 4.34

**Q.** `NS(=O)(=O)c1ccc(NC(=O)CCC(=O)O)cc1` was tested. Which pIC50 did it give?
**A.** < 4.34

**Q.** `N=C(N)N/N=C1/C=C/C(C=C1)=N\NC(N)=S` was tested. Which pIC50 did it give?
**A.** < 4.34

**Q.** `CC(=O)Nc1c(I)c(C(=O)[O-])c(I)c(N(C)C(C)=O)c1I.[Na+]` was tested. Which pIC50 did it give?
**A.** < 4.34

**Q.** How did the pIC50 turn out when `O=C(O)CCNC(=O)c1ccc(/N=N/c2ccc(O)c(C(=O)O)c2)cc1` was run?
**A.** < 4.34

**Q.** `Br.CC(Cc1ccc(O)cc1)NCC(O)c1cc(O)cc(O)c1` (stereo unspecified) was tested. Which pIC50 did it give?
**A.** < 4.34

**Q.** How did the pIC50 turn out when `[C@@]2\1(\C(=C/C(/C=C/1)=O)CC[C@@H]4[C@@H]2CC[C@@]3(OC(=O)CC[C@H]34)C)C` was run?
**A.** < 4.34
